This is an account of results in patent publication US8796302B2 (priority 2004, dated 2014).

For test [1], the system named is superoxide. The test is described as follows: Superoxide release (SOD-inhibitable cytochrome c reduction) after LPS. The class given is cell-based, rat. The conditions noted are these: 10^−14 M, enriched-microglia cultures, LPS 10 ng/ml. How it is done:
The release of superoxide was determined by measuring the superoxide dismutase (SOD)-inhibitable reduction of cytochrome c. To measure the immediate release of superoxide from microglia-enriched or neuron-glia after stimulation, cultures grown in 96-well plates were switched to phenol red-free HBSS (50 μl/well). To each well was added 50 μl of HBSS containing vehicle or DM. The cultures were then incubated at about 37° C. for about 30 min followed by 50 μl of ferricytochrome c (100 μM) in HBSS, with and without 600 U/ml SOD, 50 μl of vehicle or LPS in HBSS. The absorbance at 550 nm was read with a SpectraMax Plus microplate spectrophotometer (Molecular Devices, Sunnyvale, Calif.).
This example tests whether or not post-treatment with DM is still neuroprotective in LPS-induced neurotoxicity. Neuron-glia co-cultures as prepared in Example 1 were first treated with LPS (20 ng/ml) for twelve hours, and then LPS was removed by removing the media from the cultures and washing twice with PBS. Different concentrations of DM (10^−5, 10^−10, and 10^−14 M) were then added to the cultures and incubation was continued for another 6 or 7 days. The DA uptake and the superoxide production were measured as in Example 1 and 5. Results are expressed as a percentage of the control cultures and are the mean±S.E.M of three to six experiments with triplicates in each experiment. ##, P<0.01 compared with control culture; *, P<0.05 compared with the LPS-treated culture.
Primary enriched-microglia cultures were prepared as in Example 1. […] The intracellular ROS concentrations and superoxide amounts were measured as in Example 5. The data are expressed as the percent of the control cultures and are the mean±SEM of three experiments performed in triplicate. *P<0.05, **P<0.01, compared to control.

Test [2] concerns dopaminergic neurons in PHOX^+/+ and PHOX^−/− mouse neuron-glia cultures. Put plainly: [3H]DA uptake in neuron-glia cultures of PHOX+/+ and PHOX−/− mice. Particulars: PHOX−/− cultures, 10^−13-10^−14 M, LPS 5 ng/ml. The class given is cell-based. The protocol:
To further study the role of ROS in DM-elicited neuroprotection, neuron-glia cultures were prepared from NADPH oxidase-deficient (PHOX^−/−) and wild-type (PHOX^+/+) mice.
(§1) Neurotoxicity was assessed by DA uptake as described in Example 1. TNFα production was measured by ELISA and iROS was determined by DCFDA as in Example 5. Results are expressed as a percentage of the control culture in FIG. 7A, pg/ml in FIG. 7B, and difference from control in FIG. 7C, respectively, and are the mean±S.E.M. of five individual experiments with triplicates in each experiment. *, P<0.05 compared with LPS culture.
(§2) The rat and mouse ventral mesencephalic neuron-glia cultures were prepared as in Example 1. […] DA neurotoxicity was measured by using the [^3H] DA uptake assay as in Example 1. The data are expressed as the percent of the control cultures and are the mean±SEM. The release of TNFα was measured with a commercially available enzyme-linked immunosorbent assay kit. *P<0.05, **P<0.01, compared to control. The amount of TNFα was measured as in Example 2.

Test [3] concerns intracellular reactive oxygen species. The test is described as follows: Intracellular ROS (DCFH oxidation) after LPS. Particulars: 10^−14 M, enriched-microglia cultures, LPS 10 ng/ml. The format is cell-based, rat.
Protocol: The production of intracellular reactive oxygen species was measured by DCFH oxidation. The DCFH-DA (Molecular Probes, Eugene, Oreg.) reagent passively diffuses into cells in which it is hydrolyzed by intracellular esterase to liberate 2′-7′-dichlorofluoressein which, during reaction with oxidizing species, yields a highly fluorescent compound 2′-7′-dichlorofluorescein (DCF) that is trapped inside the cell. For each measurement, a fresh stock solution of CM-H2-DCFDA (5 mM) was prepared in dimethylsulfoxide. CM-H2-DCFDA, diluted to a final concentration of 1 μM in phenol red-free HBSS containing 2% FBS and 2% HS, was added to cultures and incubated for about 30 min at about 37° C. After washing two times with warm HBSS, vehicle or stimulators in HBSS were added to cultures. After incubation for about 30 min at about 37° C., fluorescence intensity was measured at 485 nm for excitation and 530 nm for emission using a SpectraMax Gemini XS fluorescence microplate reader (Molecular Devices).
Assay of intracellular ROS is performed as follows. 5-(and −6)-Chloromethyl-2′,7′-dichlorodihydrofluorescein diacetate (CM-H2-DCFDA) (Molecular Probes, Eugene, Oreg.), a chloromethyl derivative of H2-DCFDA, passively diffuses into cells in which it is hydrolyzed by intracellular esterases to liberate 2′-7′-dichlorofluorescein (DCF) which, during reaction with oxidizing species, yields a highly fluorescent compound that is trapped inside the cell. […] Cells were seeded at 1×10^5/well in 96-well plates for one day followed by treatment with 0.6 mM or 1.2 mM VPA for 24 h. The cultures were used for the assay of intracellular ROS.
After washing two times with warm Hank's balanced salt solution (HBSS), CM-H2-DCFDA, diluted to a final concentration of 1 μM in phenol red-free HBSS, was added to cultures and incubated for 30 min at 37° C. Then cultures were added with 0.6 or 1.2 mM VPA in HBSS again for 30 min and followed the treatment with 100 ng/ml LPS for 2 hours at 37° C., fluorescence intensity was measured at 485 nm for excitation and 530 nm for emission using a SpectraMax Gemini XS fluorescence microplate reader (Molecular Devices, Sunnyvale, Calif.).
The subject of test [4] is dopaminergic neurons in rat primary mesencephalic neuron-glia cultures. Put plainly: [3H]DA uptake in LPS-treated mesencephalic neuron-glia cultures. The format is cell-based. The conditions noted are these: LPS 5 ng/ml; for concentration of greatest level of protection (DA uptake): 10^−12-10^−16 M tested; for enhancement of [3H]DA uptake after exposure to LPS: 30 min pretreatment, 7 days. How it is done:
Neuron-glia cultures were prepared from the ventral mesencephalic tissues of embryonic day 13-14 Fisher F344 rats or day 12-13 wild-type C57BL/6J (gp91phox^+/+) mice. Dissociated cells were seeded at 1×10^5/well and 5×10^5/well to poly-D-lysine-coated 96-well and 24-well plates, respectively. Cells were maintained at about 37° C. in a humidified atmosphere of 5% CO2 and 95% air, in minimal essential medium (MEM) containing 10% fetal bovine serum (FBS), 10% horse serum (HS), 1 gm/l glucose, 2 mM L-glutamine, 1 mM sodium pyruvate, 100 μM nonessential amino acids, 50 U/ml penicillin, and 50 μg/ml streptomycin. Seven-day-old cultures were used for treatment.
Dextromethorphan (obtained from Sigma-Aldrich (St. Louis, Mo.) as dextromethorphan hydrobromide) was freshly prepared as a stock solution (1 mM) in ddH2O and sterile-filtered right before use. For treatment of the cultures, the DM was serially diluted (10×) with fresh culture medium containing 2% of fetal bovine and horse serum. The neuron-glia cultures were pretreated with 10^−5-10^−17M DM 30 minutes prior to treatment with 10 ng/ml of LPS.
Seven days after treatment, the degeneration of dopaminergic neurons was assessed by [^3H]-dopamine (DA) uptake assays. The [^3H]-DA uptake assays were performed as follows. Cultures were washed twice with warm Krebs-Ringer buffer (KRB, 16 mM sodium phosphate, 119 mM NaCl, 4.7 mM KCl, 1.8 mM CaCl2, 1.2 mM MgSO4, 1.3 mM EDTA, and 5.6 mM glucose; pH7.4) and then incubated for about 20 minutes at about 37° C. with 1 μM [^3H]-DA in KRB in order to allow for the uptake of DA. Afterwards, the cultures were washed (three times) with ice-cold KRB and the cells were collected in 1 N NaOH. Radioactivity was determined by liquid scintillation counting.
This example tests whether or not post-treatment with DM is still neuroprotective in LPS-induced neurotoxicity. Neuron-glia co-cultures as prepared in Example 1 were first treated with LPS (20 ng/ml) for twelve hours, and then LPS was removed by removing the media from the cultures and washing twice with PBS. Different concentrations of DM (10^−5, 10^−10, and 10^−14 M) were then added to the cultures and incubation was continued for another 6 or 7 days. The DA uptake and the superoxide production were measured as in Example 1 and 5.
Neuron-glia cell cultures were prepared as in Example 1, and pretreated with the various peptide fragments of Table 1 (peptide fragments were obtained from BACHEM) for 30 minutes followed by addition of 5 ng/ml of LPS. DA neurotoxicity was measured as an Example 1 at 7 days post treatment.
DA neurotoxicity was measured at 7 days post treatment as in Example 1. Dopaminergic neuronal death was determined at 7 days post treatment using immunocytochemical staining as in Example 2.
Neuron-glia cultures were prepared from the ventral mesencephalic tissues of embryonic day 13-14 rats. Dissociated cells were seeded at 1×10^5/well and 5×10^5/well to poly-D-lysine-coated 96-well and 24-well plates, respectively.

In test [5] the target is T1, gp91/p22 (Homo sapiens, UniProt P04839).
T1 construct: expressed in transfected cells; host or cells: COS-7 (stably transfected); intact cells or membrane preparations
The test is described as follows: [3H]naloxone binding to COS-7 cells transfected with gp91/p22. Particulars: COS-7 gp91/p22 cells, [3H]naloxone 2 nM, displaced with 10 μM cold naloxone. The protocol:
Binding affinities of naloxone for COS-7 cells transfected with gp91/p22 was determined using either [^3H]-(+)Naloxone or [^3H]-(−)Naloxone (2 nM; PerkinEhner Life Sciences) as ligands and displaced with 10 μM of cold (−) Naloxone in HBBS containing 0.1% (W/V) fatty acids free albumin (lot B22558, Calbiochem). COS-7 cells transfected with gp91/p22 and COS-7 cells that were not transfected (WT) were detached using Versene (1:5000, GibcoBRL, Life technologies). For intact cell assays, after washing twice with HBSS, cells were transferred to micro centrifuge tubes at 10^6 cells per tube.
To acquire membrane preparations, cells were lysed in buffer ([…] Tris, pH=7.4, 2 mM EDTA, 10 μg/ml CLAP) and homogenized. Lysate was transferred to a 50 ml conical tube, where there were centrifuged at 250 g for about 10 minutes at about 4 C. The supernatant was then transferred to another tube and spun at 100,000 G for about 90 minutes. The supernatant was then discarded and the protein pellet was re-suspended in 2 ml of lysis buffer. […]
All competition reactions of either intact cells or membrane preparations were allowed to proceed at 4° C. […] After washing with HBSS four times, the filters were collected and radioactivity retained on the filters was determined by liquid Scintillation counting. All values are expressed as percentages relative to the binding capacity of the wild type control.

Test [6] concerns TH-IR (dopaminergic) neurons in mesencephalic neuron-glia cultures. The test is described as follows: TH-IR neuron count and morphology in LPS-treated neuron-glia cultures. Particulars: LPS 5 ng/ml; for concentration of peak protection against LPS-induced DA neuron cell loss: 10^−12-10^−16 M tested; for LPS-induced damage of TH immuno-reactive neurons: 10^−14 M. The format is cell-based, rat.

The subject of test [7] is TNFα. The test is described as follows: TNFα production in neuron-glia cultures of PHOX+/+ and PHOX−/− mice. The format is cell-based, mouse. The conditions noted are these: LPS 5 ng/ml. The protocol:
as §1, §2

Test [8] has as its system dopaminergic neurons in rat primary mesencephalic neuron-glia cultures. The test is described as follows: [3H]DA uptake in LPS-treated mesencephalic neuron-glia cultures. The class given is cell-based. Particulars: femtomolar concentrations, LPS 5 ng/ml.
The mark [9] stands for this setting: PHOX−/− mice, 30 min pretreatment.
Where [10] appears, read: control (PHOX+/+) mice, 10^−14 M.

T1 sequence (P04839 whole entry): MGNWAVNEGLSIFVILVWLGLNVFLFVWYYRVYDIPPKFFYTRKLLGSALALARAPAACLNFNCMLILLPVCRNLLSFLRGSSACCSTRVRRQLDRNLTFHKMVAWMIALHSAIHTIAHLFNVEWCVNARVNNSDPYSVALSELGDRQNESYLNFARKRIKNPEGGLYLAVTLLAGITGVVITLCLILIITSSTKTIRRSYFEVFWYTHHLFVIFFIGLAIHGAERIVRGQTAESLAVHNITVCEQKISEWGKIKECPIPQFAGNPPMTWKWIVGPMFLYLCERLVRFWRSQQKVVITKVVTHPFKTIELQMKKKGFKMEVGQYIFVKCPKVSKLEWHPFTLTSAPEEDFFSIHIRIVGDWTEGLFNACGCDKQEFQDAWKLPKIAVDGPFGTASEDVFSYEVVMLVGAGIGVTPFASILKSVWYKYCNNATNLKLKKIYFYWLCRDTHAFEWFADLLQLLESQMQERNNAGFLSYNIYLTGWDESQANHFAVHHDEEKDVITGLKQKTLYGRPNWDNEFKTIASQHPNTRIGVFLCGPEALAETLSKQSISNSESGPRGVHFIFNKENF
T1 sequence (P13498 whole entry partner): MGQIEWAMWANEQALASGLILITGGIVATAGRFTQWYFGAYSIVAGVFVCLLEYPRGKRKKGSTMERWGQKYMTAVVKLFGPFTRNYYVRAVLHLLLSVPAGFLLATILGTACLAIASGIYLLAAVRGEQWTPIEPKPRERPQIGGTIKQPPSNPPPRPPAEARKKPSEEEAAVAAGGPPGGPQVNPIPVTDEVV

`C=CCN1CC[C@]23c4c5ccc(O)c4O[C@H]2C(=O)CC[C@@]3(O)[C@H]1C5` [naloxone, (5α)-4,5-Epoxy-3,14-dihydroxy-17-(2-propenyl)morphinan-6-one]: the microglial superoxide response entry in test [1] is reported as “nearly control levels”. Moreover, the “neuroprotection (DA uptake)” value in test [2] is listed as “failed to show neuroprotection”. Further, in test [3], the “reduction of intracellular ROS concentrations” value was determined as 65%. In addition, in test [4], the “concentration of greatest level of protection (DA uptake)” value was 10^−14 M and the “enhancement of [3H]DA uptake after exposure to LPS” value is “approximately 35%”. In test [5], the “binding capacity relative to control COS-7 cells” value is given as 150-180%. In test [6], the “concentration of peak protection against LPS-induced DA neuron cell loss” value is 10^−14 M and the “LPS-induced damage of TH immuno-reactive neurons” value was “protected TH immuno-reactive neurons from LPS-induced damage”. Also, the “TNFα reduction in response to LPS” value in test [7] (setting [9]) is given as “failed to show any TNFα reduction”. Also, in test [7] (setting [10]), the “TNFα reduction in response to LPS” value was “showed a reduction of TNFα”.

On to glycine-glycine-phenylalanine [GGF], for which the microglial superoxide response result in test [1] is on record as “nearly control levels”. Also, in test [2], the “neuroprotection (DA uptake)” value is “failed to show neuroprotection”. Besides, the “reduction of intracellular ROS concentrations” value in test [3] is 65%. Besides, in test [4], the “concentration of greatest level of protection (DA uptake)” value is 10^−14 M and the “enhancement of [3H]DA uptake after exposure to LPS” value is recorded as “approximately 35%”. In addition, the “neuroprotection against LPS-induced neurodegeneration” value in test [8] is reported as “minimal peptide sequence required for neuroprotection”. Further, in test [6], the “concentration of peak protection against LPS-induced DA neuron cell loss” value was 10^−14 M and the “LPS-induced damage of TH immuno-reactive neurons” value is reported as “protected TH immuno-reactive neurons from LPS-induced damage”. Moreover, the “TNFα reduction in response to LPS” value in test [7] (setting [9]) is “failed to show any TNFα reduction”. Besides, the “TNFα reduction in response to LPS” value in test [7] (setting [10]) is listed as “showed a reduction of TNFα”.
